The source of these data is article PMC13130965, “An Integrated Approach Combining Regulatory Tests in tg(cyp19a1b:GFP) Zebrafish Embryos to Assess Toxicity, Developmental Effects, and Estrogenic Activity of Chemicals: A Case Study with Bisphenol A Substitutes” (Environmental Science & Technology, 2026).

The structures appear in SMILES notation. ≈ marks a conversion by molar mass, not a printed value. Where two headings read alike, the source gives them in different places.

Data set [1] has as its system hERβ. Also noted: method as in Pelch et al. Conditions: HepG2-hERβ; ref Pelch et al.; cited from earlier work.
Data set [2] can be described thus: Refined Fish Embryo Acute Toxicity test (FET, OECD TG 236): mortality. It is filed as in vivo, zebrafish (Danio rerio). Conditions: tg(cyp19a1b:GFP), zebrafish, in vivo, other: waterborne exposure of embryos in test solution, LC50 (96h) experimental (FET test), nominal, brackets 95% CI. As for the experimental part:
(§1) Exposures were carried out in presaturated 24-well plates containing one embryo per well in 2 mL of test solution. The exposure was performed under semistatic conditions, with daily renewal of the test solution. The concentration ranges tested, along with a control with the same percentage of solvent alone, are recapitulated in Table S1. All exposure concentrations are reported as nominal. During the time course of the refined FET tests, embryos were observed after 8 h (coagulation), 24 h (lack of somite formation and nondetachment of the tail), and 48, 72, and 96 h of exposure (nondetection of the heartbeat). […] Moreover, hatching rate and nonlethal developmental effects (i.e., yolk deformity, growth retardation, spontaneous movement, edema, blood tail circulation, heart rate, pigmentation, head and tail/spinal malformations, and hemorrhage) were monitored daily. Tail/spinal malformations included lordosis, kyphosis, scoliosis, and reduced tail length.
(§2) This analysis considered all nonlethal developmental end points monitored in the refined FET assay (see above), except effects on hatching, pigmentation, spontaneous movement, and blood circulation. A teratogenic index (TI) was then calculated as the ratio LC50/EC50.
Baseline toxicity and experimental FET LC50 values were used to calculate toxic ratios (TR = predicted baseline toxicity LC50/experimental FET LC50). Compounds with TR < 10 were considered as baseline toxicants.

The subject of data set [3] is zfERs / cyp19a1b:GFP in tg(cyp19a1b:GFP) zebrafish embryos. The data set can be described thus: EASZY coexposure with ER antagonist ICI 182,780. In kind it is in vivo, zebrafish (Danio rerio). Conditions: also with 48 h ICI pre-exposure. The protocol:
(§3) The tests were conducted according to OECD TG 250. Newly fertilized cyp19a1b-GFP eggs were transferred to glass crystallizing dishes and exposed for 96 h in a humidified climate chamber (27 ± 2 °C) under semistatic conditions with a total renewal of the test solutions each day. Each condition consisted of three crystallizing dishes, each containing 7 embryos and 15 mL of test medium. Embryos were exposed to a range of nonlethal concentrations of chemicals as determined previously based on the refined FET assays. The tested concentration ranges of bisphenols, along with a control with the same percentage of solvent alone, are summarized in Table S2. All exposure concentrations are reported as nominal. At the end of exposure, transgenic zebrafish embryos were collected for fluorescence imaging to quantify GFP intensity. At the end of the experiments, all living zebrafish embryos were euthanized as described above. For coexposure experiments, embryos were exposed to bisphenols in the presence of 1 μM of the ER antagonist ICI 182,780 (ICI). ICI was added together with bisphenols from 0 to 4 dpf (days post fertilization). […] In all coexposure experiments, the final DMSO concentration was 0.02% (v/v).

For data set [4] the following is noted: ref ChemSpider; cited from earlier work.
Data set [5] concerns tg(cyp19a1b:GFP) zebrafish embryos. The data set can be described thus: Refined FET: developmental effects / malformations. It is filed as in vivo, zebrafish (Danio rerio). Conditions: nominal; for EC50: Danio rerio, end of 96 h exposure, read-out: EC50 malformations (cumulative sublethal end points). As for the experimental part:
as §1, §2

Data set [6] concerns cyp19a1b:GFP (brain aromatase) in tg(cyp19a1b:GFP) zebrafish embryos. The data set is described as follows: EASZY assay (OECD TG 250): GFP induction. Conditions: Danio rerio, 96 h; for EC50: read-out: EASZY relative EC50, nominal. It is filed as in vivo, zebrafish (Danio rerio). As for the experimental part: as §3, with “For coexposure experiments, embryos were exposed to bisphenols in the presence of 1 μM of the ER antagonist ICI 182,780 (ICI).” left out
For fluorescence imaging, GFP fold induction was expressed as mean ± SEM, and values were compared to the DMSO control using one-way ANOVA followed by Dunnett’s posthoc test. […]

In data set [7] the target is zebrafish ERβ2 (zfERβ2) (Danio rerio, UniProt Q7ZU32). The data set can be described thus: ZELH-zfERβ2 luciferase reporter gene assay. It is filed as cell-based. Conditions: read-out: maximal efficacy. As for the experimental part:
The ZELH-zfERs reporter cell line was previously established after a two-step stable transfection of the zebrafish hepatic cell line ZFL with the luciferase gene under the control of ERE (yielding the ZELH cell line that expresses no functional ER) and the zebrafish ER subtype β2 (yielding the ZELH-zfERβ2 cell line). Cells were cultured, exposed to chemicals for 72 h, and measured for luciferase activity exactly as previously described. , For each chemical, serial dilutions were prepared in DMSO and tested in three independent experiments. The final DMSO concentration in the culture medium was always 0.1% v/v. All tested concentrations refer to nominal concentrations.

The test system of data set [8] is hERβ. Details: method as in Grimaldi et al. Conditions: HELN-hERβ; ref Grimaldi et al.; cited from earlier work.

Chain of zebrafish ERβ2 (zfERβ2) (Q7ZU32 1-553): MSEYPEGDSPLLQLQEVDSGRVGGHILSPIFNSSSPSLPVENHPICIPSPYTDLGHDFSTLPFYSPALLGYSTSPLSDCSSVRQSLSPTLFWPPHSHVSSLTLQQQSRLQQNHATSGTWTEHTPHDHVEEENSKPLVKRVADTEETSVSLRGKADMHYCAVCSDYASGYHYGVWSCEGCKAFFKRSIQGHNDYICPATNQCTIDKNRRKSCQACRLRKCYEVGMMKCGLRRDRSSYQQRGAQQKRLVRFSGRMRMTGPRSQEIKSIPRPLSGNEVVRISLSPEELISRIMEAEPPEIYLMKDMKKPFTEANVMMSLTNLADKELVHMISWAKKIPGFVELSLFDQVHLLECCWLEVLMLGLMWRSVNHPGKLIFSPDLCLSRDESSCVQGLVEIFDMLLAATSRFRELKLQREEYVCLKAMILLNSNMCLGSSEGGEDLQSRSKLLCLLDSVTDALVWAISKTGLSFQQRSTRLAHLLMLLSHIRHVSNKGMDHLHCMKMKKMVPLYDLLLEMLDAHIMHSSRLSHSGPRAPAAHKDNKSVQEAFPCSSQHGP

As to `C=CCOc1ccc(S(=O)(=O)c2ccc(O)cc2)cc1` [BPS-MAE, 4-(4-prop-2-enoxyphenyl)sulfonylphenol], in data set [1], the maximal efficacy is reported as 6%. Also, the LC50 at 96 h in data set [2] is 20.1 mg/L (≈ 69.1 µM). For the same compound, the “effect of ICI 1 μM on bisphenol-induced GFP” value in data set [3] is reported as “unable to block”. Also, the “Log Kow” value in data set [4] was 3.13. In data set [5], the EC50 turned out to be 6.84 mg/L (≈ 23.6 µM), the LOEC edema came to 33.3 mg/L, the “LOEC heart rate disruption” value is 33.3 mg/L and the “LOEC no blood tail circulation” value amounted to 33.3 mg/L. Further, in data set [5], the “LOEC no spontaneous movement” value was 33.3 mg/L, the “LOEC no/Less pigmentation” value stood at 33.3 mg/L and the LOEC tail/spinal malformations is recorded as 33.3 mg/L. In data set [6] (read-out: EASZY LOEC (GFP induction), nominal), the minimal effective concentration stood at 0.625 µg/mL. For the same compound, the EC50 in data set [6] was 0.327 mg/L (≈ 1.13 µM).
For the compound `Oc1ccc(C(=C(Cl)Cl)c2ccc(O)cc2)cc1` [BPC-Cl, 4-[2,2-dichloro-1-(4-hydroxyphenyl)ethenyl]phenol], the LC50 at 96 h in data set [2] came to 4.18 mg/L (≈ 14.9 µM). Further, in data set [3], the “effect of ICI 1 μM on bisphenol-induced GFP” value was “unable to block”. In addition, the “Log Kow” value in data set [4] is 4.25. Besides, in data set [5], the half-maximal effective concentration (EC50) was found to be 1.28 mg/L (≈ 4.55 µM), the LOEC edema is 0.99 mg/L, the “LOEC heart rate disruption” value worked out at 8.89 mg/L and the LOEC hemorrhage amounted to 2.96 mg/L. In data set [5], the “LOEC no blood tail circulation” value came out at 8.89 mg/L, the “LOEC no spontaneous movement” value stood at 2.96 mg/L, the “LOEC no/Less pigmentation” value was found to be 8.89 mg/L and the LOEC tail/spinal malformations turned out to be 8.89 mg/L. In data set [5] (at least 10% of embryos affected), the “LOEC deformity of yolk” value stood at 0.99 mg/L. The 50% effective concentration (EC50) in data set [6] worked out at 0.015 mg/L (≈ 0.0534 µM). The Emax in data set [7] turned out to be 61%. Further, in data set [8], the EC50 is 0.046 µM and the maximal efficacy was 35%.
